Assay results taken from US7964560B2, “Hepatitis C virus inhibitors” (Bristol-Myers Squibb Company, priority 2008, dated 2011).
Read-outs that look alike come from different tables or passages of the source.

System: HCV replicon in HUH-7 cells
Assay: HCV replicon FRET assay
Type: cell-based, Hepatitis C virus (strain 1b)
Conditions: Hepatitis C virus
Text: An HCV replicon whole cell system was established as described by Lohmann, V. et al., Science, 285(5424):110-113 (1999). This system enabled us to evaluate the effects of our HCV Protease compounds on HCV RNA replication. Briefly, using the HCV strain 1b sequence described in the Lohmann paper (Accession number: AJ238799), an HCV cDNA was synthesized by Operon Technologies, Inc. (Alameda, Calif.), and the full-length replicon was then assembled in plasmid pGem9zf(+) (Promega, Madison, Wis.) using standard molecular biology techniques. The replicon consists of (i) the HCV 5′ UTR fused to the first 12 amino acids of the capsid protein, (ii) the neomycin phosphotransferase gene (neo), (iii) the IRES from encephalomyocarditis virus (EMCV), and (iv) HCV NS3 to NS5B genes and the HCV 3′ UTR. Plasmid DNAs were linearized with ScaI and RNA transcripts were synthesized in vitro using the T7 MegaScript transcription kit (Ambion, Austin, Tex.) according to manufacturer's directions. In vitro transcripts of the cDNA were transfected into the human hepatoma cell line, HUH-7. […] Resulting cell lines were characterized for positive and negative strand RNA production and protein production over time.
The HCV replicon FRET assay was developed to monitor the inhibitory effects of compounds described in the disclosure on HCV viral replication. HUH-7 cells, constitutively expressing the HCV replicon, were grown in Dulbecco's Modified Eagle Media (DMEM) (Gibco-BRL) containing 10% Fetal calf serum (FCS) (Sigma) and 1 mg/ml G418 (Gibco-BRL). Cells were seeded the night before (1.5×10^4 cells/well) in 96-well tissue-culture sterile plates. Compound and no compound controls were prepared in DMEM containing 4% FCS, 1:100 Penicillin/Streptomysin (Gibco-BRL), 1:100 L-glutamine and 5% DMSO in the dilution plate (0.5% DMSO final concentration in the assay). Compound/DMSO mixes were added to the cells and incubated for 4 days at 37° C. After 4 days, cells were first assessed for cytotoxicity using alamar Blue (Trek Diagnostic Systems) for a CC50 reading. The toxicity of compound (CC50) was determined by adding 1/10th volume of alamar Blue to the media incubating the cells. After 4 h, the fluorescence signal from each well was read, with an excitation wavelength at 530 nm and an emission wavelength of 580 nm, using the CYTOFLUOR® Series 4000 (Perspective Biosystems). Plates were then rinsed thoroughly with Phosphate-Buffered Saline (PBS) (3 times 150 μl). The cells were lysed with 25 μl of a lysis assay reagent containing an HCV protease substrate (5× cell Luciferase cell culture lysis reagent (PROMEGA® #E153A) diluted to 1× with distilled water, NaCl added to 150 mM final, the FRET peptide substrate (as described for the enzyme assay above) diluted to 10 μM final from a 2 mM stock in 100% DMSO. The plate was then placed into the CYTOFLUOR® 4000 instrument which had been set to 340 nm excitation/490 nm emission, automatic mode for 21 cycles and the plate read in a kinetic mode. EC50 determinations were carried out as described for the IC50 determinations.

For C=C[C@@H]1C[C@]1(NC(=O)[C@@H]1C[C@@](SCCCC)(c2ccc(-c3ccccc3)cc2)CN1C(=O)[C@@H](NC(=O)OC(C)(C)C)C(C)(C)C)C(=O)NS(=O)(=O)C1CC1 [Example 1, tert-butyl (S)-1-((2S,4R)-4-(biphenyl-4-yl)-4-(butylthio)-2-((1R,2S)-1-(cyclopropylsulfonylcarbamoyl)-2-vinylcyclopropylcarbamoyl)pyrrolidin-1-yl)-3,3-dimethyl-1-oxobutan-2-ylcarbamate], the EC50 (96 h, HUH-7 replicon cells, 4 days, read-out: EC50 value in the replicon FRET assay) was 7.3 nM and the EC50 (Huh-7) was 7.2 to 22 nM.
